The text below walks through data of paper PMC10813319 (Biomedicines, 2024).

pEC50: −log10 of the molar value. Read-outs that look alike come from different tables or passages of the source. Square brackets hold non-standard residues; d marks the D form. Peptide text beside a SMILES is read from it.

For assay [1], the system named is Aβd/t-induced cofilactin rods in Day 55 human iPSC-derived glutamatergic neurons.
Description: (§1) The predominantly dimer/trimer fraction of a secreted human amyloid-β (Aβd/t) was derived from a Chinese hamster ovary-cell line (7PA2) [62]. Medium from these cells collected after overnight incubation was concentrated 10-fold on Amicon Ultra 15 mL, 3K cut-off spin filters (Sigma-Aldrich), and the concentrate fractionated on a Superdex-75 Increase (Sigma-Aldrich) gel filtration column equilibrated in 50 mM ammonium acetate buffer [20, 24]. The fractions containing Aβd/t were identified by Western blots using an Aβ antibody (6E10; 1:1000) (Covance, Princeton, NJ, USA). Fractions were freeze-dried, resolubilized in 1 mL of sterile water, and freeze-dried a second time for storage. The Aβd/t fraction was reconstituted to 1X (concentration in 7PA2 culture medium, assuming full recovery of the dimer/trimer fraction) in neuronal culture medium prior to addition to neuronal cultures. Quantification of the total Aβd/t pool was determined to be about 1 nM (monomer equivalent) by comparison on immunoblots to a standard curve using synthetic Aβ [20].
(§2) Human neurons were derived from iPSC WTC-11 cells, in which a doxycycline-regulated promoter drives the expression of the Ngn2 transcription factor for glutamatergic neuronal differentiation [67, 68]. […] Differentiated neurons were plated at 60,000 per well and cultured for 55 days in glial-conditioned complete homemade neurobasal medium (hNB) either on poly-D-lysine/Matrigel (Corning Life Sciences, Tewksbury, MA, USA) coated glass bottom 24-well plates (Cellvis, Mountain View, CA, USA) or on similarly coated 12 mm German glass coverslips placed in plastic 24-well plates.
(§3) Cultured neurons were exposed to inhibitors and/or Aβd/t for 20–24 h prior to fixation for 30 min with 4% formaldehyde ± 0.1% glutaraldehyde in cytoskeletal buffer [72], washed 3 times with PBS, and permeabilized with −20 °C methanol (3 min while warming to RT). Methanol permeabilization without the use of non-ionic detergents is critical for optimal observation of rods [13]. After removing the methanol, neurons were washed twice in PBS, twice in Tris Buffered Saline (TBS: 10 mM Tris, pH 7.5, 150 mM NaCl), and incubated for 1 h at RT with blocking buffer (2–5% goat or donkey serum, 1% bovine serum albumin (BSA) in TBS). Primary antibodies (rabbit 1439 anti-cofilin, mouse anti-neurofilament, and chicken anti-MAP2) were diluted in 1% BSA in TBS and incubated overnight on cells at 4 °C. After 3–5 washes with TBS, secondary fluorescent-labeled antibodies (goat anti-rabbit Alexa 488 or 647, goat anti-mouse Alexa 564, or goat anti-chicken Alexa 488 or 564) ± DAPI (1:500 of 1 mg/mL) were added for 1 h at RT in 1% BSA/TBS. After 3–5 TBS washes, coverslips were mounted onto glass slides with Prolong Diamond Antifade ± DAPI (Thermo-Fisher) and air dried overnight in the dark.
(§4) Stitched images of fixed neurons immunolabeled for cofilin and nuclei (DAPI), as well as either NF-H or MAP2, were exported as tiff files to Metamorph (version 7.8, Molecular Devices, San Jose, CA, USA) or ImageJ (Version 1.53e; Java 1.8.0_172; ImageJ.org). In some cases, macro functions were applied to set local thresholds and shape/size segmentation for cofilin rods.
Assay [2] has as its system pre-formed Aβd/t-induced cofilin-mRFP rods in E18 rat neurons.
Assay [3] deals with Aβd/t-induced cofilactin rods in Day 55 human iPSC-derived glutamatergic neurons. The assay is described as follows: cells. Particulars: Neuron, read-out: EC50 for inhibition of Aβd/t-induced rods, human neurons.
Description: as §1, §2, §3, §4
For assay [4], the system named is pre-formed Aβd/t-induced cofilactin rods in Day 55 human neurons. Particulars: AMD3100 30 nM for 24 h in the continued presence of Aβd/t; cited from earlier work.
Assay [5] concerns glutamate-induced cofilactin rods in 6 DIV rat hippocampal neurons.
Assay [6] has as its system Aβd/t-induced cofilactin rods in 6 DIV rat hippocampal neurons.
Assay [7] relates to IL-6-induced cofilactin rods in Day 55 human neurons.
The test system of assay [8] is dual tropic gp120MN-induced cofilactin rods in Day 55 human neurons.
The test system of assay [9] is pre-formed Aβd/t-induced cofilactin rods in Day 55 human neurons.
The mark [10] stands for this setting: read-out: Human Neuron EC50, inhibition of Aβd/t-induced rods, Day 55 human neurons treated 24 h with Aβd/t plus peptide, Table 1.

For Maraviroc [reference compound], the pEC50 in assay [1] (read-out: EC50 for inhibition of Aβd/t-induced rods, human neurons, Day 55 human iPSC-derived neurons, <1 nM to 100 nM, approximate, estimated from semi-log plots (Figure S2C,D), n = 2) was 8.05 to 8.10.

Turning to `c1cc(CN2CCCNCCNCCCNCC2)ccc1CN1CCCNCCNCCCNCC1` [AMD3100], in [2] (AMD3100 50 nM, RAP-103 0.1 nM, live imaging over 2.5 h, n = 3), the “Reversal of rods induced by and in the continued presence of Aβd/t” value was “reversed rods”. In addition, the pEC50 in assay [3] is 8.52 to 8.70. The “Reversal of Aβd/t-induced rods in human neurons” value in [4] was “reversed”.

Regarding `C[C@H](O)[C@@H](NC(=O)[C@@H](Cc1ccc(O)cc1)NC(=O)[C@@H](CC(N)=O)NC(=O)[C@H](NC(=O)[C@H](NC(=O)[C@H](NC(=O)[C@@H](CO)NC(=O)[C@@H](C)N)[C@H](C)O)[C@H](C)O)[C@H](C)O)C(N)=O` [RAP-310], in assay [5], the “Inhibition of glutamate-induced rods” value was “did not inhibit”. Further, the “Inhibition of Aβd/t-induced rods, rat neurons” value in assay [6] is reported as “fully inhibited”.

For `CN[C@@H](C(=O)N[C@@H](C(=O)N[C@H](CC(N)=O)C(=O)N[C@H](Cc1ccc(O)cc1)C(=O)N[C@@H](C(=O)O)[C@H](C)O)[C@H](C)O)[C@H](C)O` [Peptide 6], the pEC50 in [1] (setting [10]) was < 9.00.

`C[C@H](O)[C@@H](NC(=O)[C@@H](Cc1ccc(O)cc1)NC(=O)[C@@H](CC(N)=O)NC(=O)[C@H](NC(=O)[C@H](N)CO)[C@H](C)O)C(=O)O` [Peptide 3] (H-[dS][dT][dN][dY][dT]-OH): the pEC50 in [1] (setting [10]) is ~8.82.

Regarding `C[C@H](O)[C@@H](NC(=O)[C@@H](CO)NC(=O)[C@H](N)CO)C(=O)N[C@H](Cc1ccc(O)cc1)C(=O)N[C@H](CCCNC(=N)N)C(=O)O` [Peptide 2] (H-[dS][dS][dT][dY][dR]-OH; N-terminus and C-terminus assumed), in assay [1] (setting [10]), the pEC50 is ~9.00.

Consider `C[C@H](O)[C@@H](N)C(=O)N[C@@H](C(=O)N[C@H](CC(N)=O)C(=O)N[C@H](Cc1ccc(O)cc1)C(=O)N[C@@H](C(=O)O)[C@H](C)O)[C@H](C)O` [RAP-103], for which the pEC50 in assay [7] is ~13.00. In addition, in assay [8], the “Inhibition of gp120MN-induced rod formation” value was “completely inhibited”. The “Time to 50% rod reversal in human neurons” value in [9] was ~ 3 h. Besides, in [2], the “Adjusted time of 50% loss of rod area” value was “about 200 min”; the “Extrapolated time to 50% decrease in rod size” value is listed as ~ 3 h; the “Rate of rod reversal relative to AMD3100” value was 2 fold; the “Reversal of rods induced by and in the continued presence of Aβd/t” value was “reversed rods”.
